Data on 20 compounds can be found in patent US20080234318A1, “Chemical Compounds” (priority 2005, published 2008).

A value given as a limit tells only on which side of the number the result lay.

The test system of this experiment is HIV-1. Description: HOS HIV-1 infectivity assay. The class given is cell-based. Conditions: Human immunodeficiency virus 1, BAL / IIIB, HOS cells expressing hCXCR4/hCCR5/hCD4/pHIV-LTR-luciferase, virus strain (Ba-L or IIIB) not given, read-out: Activity Level. The protocol:
Compounds were profiled against two HIV-1 viruses, the M-tropic (CCR5 utilizing) Ba-L strain and the T-tropic (CXCR4 utilizing) IIIB strain. Both viruses were propagated in human peripheral blood lymphocytes. Compounds were tested for there ability to block infection of the HOS cell line (expressing hCXCR4/hCCR5/hCD4/pHIV-LTR-luciferase) by either HIV-1 Ba-L or HIV-1 IIIB. Compound cytotoxicity was also examined in the absence of virus addition.
HOS cells (expressing hCXCR4/hCCR5/hCD4/pHIV-LTR-luciferase) were harvested and diluted in Dulbeccos modified Eagles media supplemented with 2% FCS and non-essential amino acid to a concentration of 60,000 cells/ml. The cells were plated into 96-well plates (100 ul per well) and the plates were placed in a tissue culture incubator (37° C.; 5% CO2/95% air) for a period of 24h.
Subsequently, 50 ul of the desired drug solution (4 times the final concentration) was added to each well and the plates were returned to the tissue culture incubator (37° C.; 5% CO2/95% air) for 1h. Following this incubation 50 ul of diluted virus was added to each well (approximately 2 million RLU per well of virus). The plates were returned to the tissue culture incubator (37° C.; 5% CO2/95% air) and were incubated for a further 96h.
Following this incubation the endpoint for the virally infected cultures was quantified following addition of Steady-Glo Luciferase assay system reagent (Promega, Madison, Wis.). Cell viability or non-infected cultures was measured using a CellTiter-Glo luminescent cell viability assay system (Promega, Madison, Wis.). All luminescent readouts are performed on a Topcount luminescence detector (Packard, Meridien, Conn.).
Take `CN1CCN(c2cccc3nc(CN(C)[C@H]4CCCc5cccnc54)c(CNS(C)(=O)=O)n23)CC1` [Example 34, N-{[5-(4-Methyl-1-piperazinyl)-2-({methyl[(8S)-5,6,7,8-tetrahydro-8-quinolinyl]amino}methyl)imidazo[1,2-a]pyridine-3-yl]methyl}methanesulfonamide]: the IC50 is below 100 nM.
For `CCNCc1c(CN(C)[C@H]2CCCc3cccnc32)nc2cccc(N3CCN(C)CC3)n12` [Example 20, (8S)—N-{[3-[(Ethylamino)methyl]-5-(4-methyl-1-piperazinyl)imidazo[1,2-a]pyridin-2-yl]methyl}-N-methyl-5,6,7,8-tetrahydro-8-quinolinamine], the IC50 is below 100 nM.
With `CN1CCN(c2cccc3nc(CN(C)[C@H]4CCCc5cccnc54)c(CN4CCCCC4)n23)CC1` [Example 22, (8S)—N-Methyl-N-{[5-(4-methyl-1-piperazinyl)-3-(1-piperidinylmethyl)imidazo[1,2-a]pyridin-2-yl]methyl}-5,6,7,8-tetrahydro-8-quinolinamine] the figure was below 100 nM.
With `CN1CCN(c2cccc3nc(CN(C)[C@H]4CCCc5cccnc54)c(CNC(=O)Cc4ccccc4)n23)CC1` [Example 30, N-{[5-(4-Methyl-1-piperazinyl)-2-({methyl[(8S)-5,6,7,8-tetrahydro-8-quinolinyl]amino}methyl)imidazo[1,2-a]pyridin-3-yl]methyl}-2-phenylacetamide] the figure was below 100 nM; with `CC(C)S(=O)(=O)NCc1c(CN(C)[C@H]2CCCc3cccnc32)nc2cccc(N3CCN(C)CC3)n12` [Example 36, N-{[5-(4-Methyl-1-piperazinyl)-2-({methyl[(8S)-5,6,7,8-tetrahydro-8-quinolinyl]amino}methyl)imidazo[1,2-a]pyridin-3-yl]methyl}-2-propanesulfonamide], below 100 nM.
To `CN1CCN(c2cccc3nc(CN(C)[C@H]4CCCc5cccnc54)c(CN4CCC(O)C4)n23)CC1` (stereo partly drawn) [Example 15, 1-{[5-(4-Methyl-1-piperazinyl)-2-({methyl[(8S)-5,6,7,8-tetrahydro-8-quinolinyl]amino}methyl)imidazo[1,2-a]pyridin-3-yl]methyl}-3-pyrrolidinol] belongs below 100 nM.
In the case of `COC(=O)NCc1c(CN(C)[C@H]2CCCc3cccnc32)nc2cccc(N3CCN(C)CC3)n12` [Example 31, Methyl {[5-(4-methyl-1-piperazinyl)-2-({methyl[(8S)-5,6,7,8-tetrahydro-8-quinolinyl]amino}methyl)imidazo[1,2-a]pyridin-3-yl]methyl}carbamate], the IC50 was below 100 nM.
On to `CNCc1c(CN(C)[C@H]2CCCc3cccnc32)nc2cccc(N3CCN(C)CC3)n12` [Example 19, (8S)—N-Methyl-N-{[3-[(methylamino)methyl]-5-(4-methyl-1-piperazinyl)imidazo[1,2-a]pyridin-2-yl]methyl}-5,6,7,8-tetrahydro-8-quinolinamine], for which the IC50 was below 100 nM.
In the case of `CN1CCN(Cc2c(CN(C)[C@H]3CCCc4cccnc43)nc3cccc(N4CCN(C)CC4)n23)CC1` [Example 21, (8S)—N-Methyl-N-({5-(4-methyl-1-piperazinyl)-3-[(4-methyl-1-piperazinyl)methyl]imidazo[1,2-a]pyridin-2-yl}methyl)-5,6,7,8-tetrahydro-8-quinolinamine], the IC50 is below 100 nM.
To `CCN(CC)Cc1c(CN(C)[C@H]2CCCc3cccnc32)nc2cccc(N3CCN(C)CC3)n12` [Example 11, (8S)—N-{[3-[(Diethylamino)methyl]-5-(4-methyl-1-piperazinyl)imidazo[1,2-a]pyridin-2-yl]methyl}-N-methyl-5,6,7,8-tetrahydro-8-quinolinamine] belongs below 100 nM; to `CN(C)Cc1c(CN(C)[C@H]2CCCc3cccnc32)nc2cccc(N3CCN(C)CC3)n12` [Example 10, (8S)—N-{[3-[(Dimethylamino)methyl]-5-(4-methyl-1-piperazinyl)imidazo[1,2-a]pyridin-2-yl]methyl}-N-methyl-5,6,7,8-tetrahydro-8-quinolinamine], below 100 nM; to `CN1CCN(c2cccc3nc(CN(C)[C@H]4CCCc5cccnc54)c(CN4CCCC4)n23)CC1` [Example 12, (8S)—N-Methyl-N-{[5-(4-methyl-1-piperazinyl)-3-(1-pyrrolidinylmethyl)imidazo[1,2-a]pyridin-2-yl]methyl}-5,6,7,8-tetrahydro-8-quinolinamine], below 100 nM.
With `CN1CCN(c2cccc3nc(CN(C)[C@H]4CCCc5cccnc54)c(CNS(=O)(=O)c4ccccc4)n23)CC1` [Example 37, N-{[5-(4-Methyl-1-piperazinyl)-2-({methyl[(8S)-5,6,7,8-tetrahydro-8-quinolinyl]amino}methyl)imidazo[1,2-a]pyridin-3-yl]methyl}benzenesulfonamide] the figure was below 100 nM.
With `CN1CCN(c2cccc3nc(CN(C)[C@H]4CCCc5cccnc54)c(CN4CCOCC4)n23)CC1` [Example 16, (8S)—N-Methyl-N-{[5-(4-methyl-1-piperazinyl)-3-(4-morpholinylmethyl)imidazo[1,2-a]pyridin-2-yl]methyl}-5,6,7,8-tetrahydro-8-quinolinamine] the figure was below 100 nM.
For `CCN(CCO)Cc1c(CN(C)[C@H]2CCCc3cccnc32)nc2cccc(N3CCN(C)CC3)n12` [Example 14, 2-(Ethyl{[5-(4-methyl-1-piperazinyl)-2-({methyl[(8S)-5,6,7,8-tetrahydro-8-quinolinyl]amino}methyl)imidazo[1,2-a]pyridin-3-yl]methyl}amino)ethanol], the IC50 was below 100 nM.
On to `COc1ccc(NC(=O)NCc2c(CN(C)[C@H]3CCCc4cccnc43)nc3cccc(N4CCN(C)CC4)n23)cc1` [Example 43, N-[4-(Methyloxy)phenyl]-N′-{[5-(4-methyl-1-piperazinyl)-2-({methyl[(8S)-5,6,7,8-tetrahydro-8-quinolinyl]amino}methyl)imidazo[1,2-a]pyridin-3-yl]methyl}urea], for which the IC50 was below 100 nM.
For `CN1CCN(c2cccc3nc(CN(C)[C@H]4CCCc5cccnc54)c(CNC(N)=O)n23)CC1` [Example 44, N-{[5-(4-Methyl-1-piperazinyl)-2-({methyl[(8S)-5,6,7,8-tetrahydro-8-quinolinyl]amino}methyl)imidazo[1,2-a]pyridin-3-yl]methyl}urea], the IC50 was below 100 nM.
To `CCOC(=O)NCc1c(CN(C)[C@H]2CCCc3cccnc32)nc2cccc(N3CCN(C)CC3)n12` [Example 32, Ethyl {[5-(4-methyl-1-piperazinyl)-2-({methyl[(8S)-5,6,7,8-tetrahydro-8-quinolinyl]amino}methyl)imidazo[1,2-a]pyridin-3-yl]methyl}carbamate] belongs below 100 nM; to `CCS(=O)(=O)NCc1c(CN(C)[C@H]2CCCc3cccnc32)nc2cccc(N3CCN(C)CC3)n12` [Example 35, N-{[5-(4-Methyl-1-piperazinyl)-2-({methyl[(8S)-5,6,7,8-tetrahydro-8-quinolinyl]amino}methyl)imidazo[1,2-a]pyridin-3-yl]methyl}ethanesulfonamide], below 100 nM.
With `CC(C)C(=O)NCc1c(CN(C)[C@H]2CCCc3cccnc32)nc2cccc(N3CCN(C)CC3)n12` [Example 27, 2-Methyl-N-{[5-(4-methyl-1-piperazinyl)-2-({methyl[(8S)-5,6,7,8-tetrahydro-8-quinolinyl]amino}methyl)imidazo[1,2-a]pyridine-3-yl]methyl}propanamide] the figure was below 100 nM.
